Positions count from the first letter of the chain named. Several values for one entry are separate records, joined by “and”; a condition that tells them apart may be missing. Equal entries are not always repeated.
Assays:
PI5P4Kβ [1] = biological target: T1, PI5P4Kβ (Homo sapiens, UniProt P78356); test: Competition assay of 32P-GTP-dependent PI(5)P phosphorylation by cold PNTs; assay type: biochemical; conditions: 250 μM 32P-GTP, 3.2-400 μM cold PNT
T1 sequence (P78356 1-416): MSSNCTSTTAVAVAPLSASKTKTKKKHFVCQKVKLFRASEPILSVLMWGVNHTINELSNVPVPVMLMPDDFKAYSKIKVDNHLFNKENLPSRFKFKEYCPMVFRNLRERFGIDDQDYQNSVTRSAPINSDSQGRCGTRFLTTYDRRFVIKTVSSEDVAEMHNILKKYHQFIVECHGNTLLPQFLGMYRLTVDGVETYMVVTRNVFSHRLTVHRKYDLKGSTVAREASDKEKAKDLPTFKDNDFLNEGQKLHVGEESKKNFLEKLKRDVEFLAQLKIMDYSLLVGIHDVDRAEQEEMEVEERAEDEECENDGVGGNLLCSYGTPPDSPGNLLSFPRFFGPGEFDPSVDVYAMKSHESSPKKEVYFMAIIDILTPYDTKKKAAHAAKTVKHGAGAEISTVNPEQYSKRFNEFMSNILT
Procedure: (A) The kinase reaction was carried out in a total of 50 μl of reaction buffer (50 mM HEPES (pH 7.4), 0.2 mM EGTA, and 10 mM MgCl2) containing 20 μM of PI(5)P (d-myo-phosphatidylinositol 5-phosphate diC16) that was suspended by sonication. 250 μM of γ-^32P radiolabeled GTP was incubated with 1 μg of recombinant PI5P4Kβ for 10 min at room temperature. 20 μM of PI(5)P was used with 3 μM 1,2-dipalmitoyl-phosphatidylserine as the basal lipid. Phosphoinositides were extracted by a methanol/chloroform (1/1, v/v) mix and subjected to a thin-layer chromatography (TLC) assay using heat-activated 2% […] silica gel 60 plates. The solvent was 1-propanol/2 M acetic acid (65/35, v/v). In competition assay, 250 μM of ^32P-labeled GTP was mixed with 3.2-400 μM triphosphorylated nucleotides, and the PI(5)P phosphorylation by GTP was monitored by quantifying the amount of radiolabeled PI(4,5)P2. (B) Relative kinase activities in the presence of each PNT against those without them (i.e., only ^32P-GTP condition) are shown.
(§1) Next, the mechanism of the GTP preference of PI5P4Kβ was investigated using a series of ATP and GTP analogs. Based on analysis of the GTP-PI5P4Kβ interaction (FIG. 10(B)), 10 PNTs with different configurations at the 2nd and 6th positions of the purine base (NH2(2) and O(6) in guanine base, respectively) were chosen (FIG. 10(A)). The hydrolysis activities of PI5P4Kβ for these PNTs were quantified by an NMR-based assay (data not shown). […] On the other hand, O(6) seems to be required for the activity. […] This view is also supported by the larger energetic contribution of the O(6) moiety compared to the NH2(2) moiety in the FMO interaction analysis between GTP and PI5P4Kβ (FIG. 15).

PI5P4Kβ [2] = biological target: T1, PI5P4Kβ; test: NMR-based PNT hydrolysis assay; assay type: biochemical; conditions: WT PI5P4Kβ
Procedure: (A) The PNT hydrolysis activity of PI5P4Kβ. indicative of the kinase activity of PI5P4Kβ. was assessed by the signal intensity ratios of diphosphorylated/triphosphorylated nucleotides after the reaction. The average values from three experiments are shown with error bars (SD). Highly hydrolyzed nucleotides (>0.1 of the ratios) were shown for GTP, ITP, XTP, 6-thio-GTP, and 2a-ATP. (B), (C), and (D) show interactions of the PI5P4Kβ-ITP, PI5P4Kβ-XTP, and PI5P4Kβ-2a-ATP complexes, respectively. Dotted lines represent hydrogen bonds between the PNTs and PI5P4Kβ.
as §1

PI5P4KβN203D = biological target: T2, PI5P4KβN203D (Homo sapiens, UniProt P78356, N203D); test: PNT hydrolysis activity of mutant PI5P4Kβ; assay type: biochemical
T2 sequence (P78356 1-416 N203D): T1 sequence (P78356 1-416) with N203D
Procedure: (§2) (A)-(C) show PNT hydrolysis activity of mutant PI5P4Kβ as compared to the WT. The ratios of dephosphorylated/triphosphorylated nucleotides after reaction are shown. The N203A activity is almost negligible.
(§3) In addition, the hydrolysis activity of the mutants on four active triphosphorylated nucleotides were analyzed, XTP, ITP, 6-thio-GTP, and 2a-ATP. […] In the crystal structure of the PI5P4KβN203D-ITP complex, ITP binds in a similar manner as the WT.

PI5P4KβF205L [3] = biological target: T3, PI5P4KβF205L (Homo sapiens, UniProt P78356, F205L); test: PNT hydrolysis activity of mutant PI5P4Kβ; assay type: biochemical
T3 sequence (P78356 1-416 F205L): T1 sequence (P78356 1-416) with F205L
Procedure: as §2, §3

PI5P4Kβ [4] = biological target: T1, PI5P4Kβ; conditions: KM for GTP; cited from earlier work
PI5P4KβF205L [5] = biological target: T3, PI5P4KβF205L; conditions: F205L mutant; partly reported in Sumita et al., 2016; cited from earlier work
[6] = tested on: PI5P4Kβ with mutation of Asn-203; test: Nucleotide binding of Asn-203 mutant PI5P4Kβ
Procedure: The functional role of Asn-203 was analyzed, because this is the only invariant residue in the base-recognition loop of PI4P5K and PI5P4K.

PI5P4KβT201M [7] = biological target: T4, PI5P4KβT201M (Homo sapiens, UniProt P78356, T201M); conditions: T201M mutant; partly reported in Sumita et al., 2016; cited from earlier work
T4 sequence (P78356 1-416 T201M): T1 sequence (P78356 1-416) with T201M

[8] = tested on: WT PI5P4Kβ-reconstituted Pip4k2b^−/− cells; test: Cell viability after nigericin treatment; assay type: cell-based, mouse
Procedure: (§4) Next, treatment with microbial toxin nigericin, a selective K^+/H^+ exchanger that is activated in the lysosome and induces lysosome rupture and following cell death, was assessed. […] The autophagic flux in MEF, 293T, and HCT116 cells was decreased by Link17 treated cells (FIG. 7(A),(B)). In the isogenic MEFs, autophagy was decreased in Pip4k2b^−/− and F205L cells, compared to WT cells (FIG. 7(C)).

Pip4k2b^−/− cells = test: Nigericin-induced vacuolization; assay type: cell-based, mouse; conditions: within 4h after nigericin treatment
Procedure: (D) is a graph showing cytotoxic death by nigericin was suppressed in Pip4K2b^−/− cells and F205L-PI5P4Kβ-expressing Pip4K2b−/− cells.
as §4

[9] = tested on: WT PI5P4Kβ-reconstituted Pip4k2b^−/− cells; test: Nigericin-induced vacuolization; assay type: cell-based, mouse; conditions: within 4h after nigericin treatment
Procedure: as §4

PI5P4KβT201M [10] = biological target: T4, PI5P4KβT201M; test: PNT hydrolysis activity of mutant PI5P4Kβ; assay type: biochemical
[11] = tested on: isogenic Pip4K2b^−/− cells; test: Lysotracker staining of serum-starved MEFs (lysosomal acidification); assay type: cell-based, mouse; conditions: 10 μM MPA or 20 μM Link17
[12] = tested on: WT-PI5P4Kβ-expressing Pip4K2b^−/− cells; test: as above; assay type: cell-based, mouse

For `O=c1[nH]c(=O)c2ncn([C@@H]3O[C@H](COP(=O)(O)OP(=O)(O)OP(=O)(O)O)[C@@H](O)[C@H]3O)c2[nH]1` [XTP, xanthosine triphosphate], the “inhibition of GTP-dependent PI(5)P phosphorylation activity” value (PI5P4Kβ [1]) was “strongly inhibited”, the “hydrolysis activity compared to GTP” value (PI5P4Kβ [2]) was 1.9 times and the “hydrolysis activity of PI5P4Kβ (in words)” value (PI5P4Kβ [2]) was “substantial activity”. The “hydrolysis activity compared to WT” value (PI5P4KβN203D) was “significantly reduced” and the “hydrolysis activity compared to WT” value (PI5P4KβF205L [3]) was “diminished susceptibility”.
For `Nc1nc2c(ncn2[C@@H]2O[C@H](COP(=O)(O)OP(=O)(O)OP(=O)(O)O)[C@@H](O)[C@H]2O)c(=O)[nH]1` [GTP, guanosine triphosphate], the Km (PI5P4Kβ [4]) is listed as ~100 µM and ~88 µM, the nucleotide-dependent kinase activity (PI5P4KβF205L [5]) is listed as “reduction of the GTP-dependent activity” and the binding of nucleotide [6] is listed as “markedly reduced the binding”. The nucleotide-dependent kinase activity (PI5P4KβT201M [7]) was “decreased GTP-dependent kinase activity”, the “hydrolysis activity compared to WT” value (PI5P4KβN203D) was “significantly reduced” and the “hydrolysis activity compared to WT” value (PI5P4KβF205L [3]) was “less active”.
For `CO[C@@H]1C[C@@H](C[C@H]2CC[C@H](C)[C@H]([C@@H](C)C(=O)O)O2)O[C@]2(O[C@](C)([C@H]3CC[C@@](C)([C@@H]4O[C@@H]([C@H]5O[C@@](O)(CO)[C@H](C)C[C@@H]5C)C[C@@H]4C)O3)C[C@H]2C)[C@@H]1C` [nigericin], the cell viability [8] was “decreased cell viability”, the “hypervacuolization after nigericin treatment” value (Pip4k2b^−/− cells) was “not” and the “hypervacuolization after nigericin treatment” value [9] was “hypervacuolization was observed”.
In the case of `Nc1nc(N)c2ncn([C@@H]3O[C@H](COP(=O)(O)OP(=O)(O)OP(=O)(O)O)[C@@H](O)[C@H]3O)c2n1` [2a-ATP], the “hydrolysis activity compared to WT” value (PI5P4KβT201M [10]) is reported as “more active”, the “hydrolysis activity of PI5P4Kβ (in words)” value (PI5P4Kβ [2]) is reported as “substantial activity” and the “hydrolysis activity compared to WT” value (PI5P4KβN203D) is reported as “significantly reduced”. The “hydrolysis activity compared to WT” value (PI5P4KβF205L [3]) was “not affected”.
For `COc1nc(N)nc2c1ncn2[C@@H]1O[C@H](COP(=O)(O)OP(=O)(O)OP(=O)(O)O)[C@@H](O)[C@H]1O` [O6-me-GTP], the “hydrolysis activity of PI5P4Kβ (in words)” value (PI5P4Kβ [2]) was “very low hydrolysis activity”.
For `Nc1ncnc2c1ncn2[C@@H]1O[C@H](COP(=O)(O)OP(=O)(O)OP(=O)(O)O)[C@@H](O)[C@H]1O` [ATP], the “hydrolysis activity compared to WT” value (PI5P4KβT201M [10]) is listed as “more active”, the nucleotide-dependent kinase activity (PI5P4KβF205L [5]) is listed as “comparable to that of WT PI5P4Kβ” and the binding of nucleotide [6] is listed as “markedly reduced the binding”. For the same compound, the nucleotide-dependent kinase activity (PI5P4KβT201M [7]) was “higher ATP-dependent activity”, the “hydrolysis activity compared to WT” value (PI5P4KβN203D) was “significantly reduced” and the “hydrolysis activity compared to WT” value (PI5P4KβF205L [3]) was “not affected”.
With `Nc1nc(Cl)c2ncn(C3OC(COP(=O)(O)OP(=O)(O)OP(=O)(O)O)C(O)C3O)c2n1` (stereo not shown) [2a-6C1-PTP] the “hydrolysis activity of PI5P4Kβ (in words)” value (PI5P4Kβ [2]) was “very low hydrolysis activity”.
For `O=P(O)(O)OP(=O)(O)OP(=O)(O)OC[C@H]1O[C@@H](n2cnc3c(O)ncnc32)[C@H](O)[C@@H]1O` [ITP, inosine triphosphate], the “inhibition of GTP-dependent PI(5)P phosphorylation activity” value (PI5P4Kβ [1]) was “strongly inhibited”, the “hydrolysis activity compared to GTP” value (PI5P4Kβ [2]) was 1.3 times and the “hydrolysis activity of PI5P4Kβ (in words)” value (PI5P4Kβ [2]) was “substantial activity”. For the same compound, the “hydrolysis activity compared to WT” value (PI5P4KβN203D) was “hyperactive” and the “hydrolysis activity compared to WT” value (PI5P4KβF205L [3]) was “less active”.
In the case of `Nc1nc(=S)c2ncn([C@@H]3O[C@H](COP(=O)(O)OP(=O)(O)OP(=O)(O)O)[C@H](O)C3O)c2[nH]1` (stereo partly shown) [6-thio-GTP], the “inhibition of GTP-dependent PI(5)P phosphorylation activity” value (PI5P4Kβ [1]) is reported as “strongly inhibited”, the “hydrolysis activity of PI5P4Kβ (in words)” value (PI5P4Kβ [2]) is reported as “substantial activity” and the “hydrolysis activity compared to WT” value (PI5P4KβF205L [3]) is reported as “less active”.
With `COc1c(C)c2c(c(O)c1C/C=C(\C)CCC(=O)O)C(=O)OC2` [MPA, mycophenolic acid] the “lysosomal acidification (lysotracker staining)” value (“lysosomal acidification” for short) [11] was “not”, the “lysosomal acidification” value ([12]; 10 μM MPA or 20 μM Link17) was “suppressed lysosomal acidification” and the “lysosomal acidification” value ([12]; 10 μM MPA or 20 μM Link17, listed as mycophenolic acid) was “had a deacidification effect”.

— patent US20230096781A1, “METHODS OF CONTROLLING BODYWEIGHT BY MODULATING PHOSPHATIDYLINOSITOL 5-PHOSPHATE 4-KINASE BETA ACTIVITY” (University of Cincinnati, priority 2020, published 2023)
